Tests used:
MOLT-4 cells = experiment: Cell viability assay, MTS, 48 h, MOLT-4; format: cell-based; conditions: Homo sapiens, MOLT-4, 48 h, 48 hours, read-out: IC50 (48 hours) MOLT-4
Description: (§1) Acute lymphoblastic leukemia cells (MOLT-4 and RS4; 11) or small cell lung cancer (NCI-H146 or simply H146) were incubated with increasing concentrations of Bcl-xL degraders for 48 h. Cell viability was measured by tetrazolium-based MTS assay.

RS4;11 cells = experiment: Cell viability assay, MTS, 48 h, RS4;11; format: cell-based; conditions: Homo sapiens, RS4-11, 48 h, 48 hours, read-out: IC50 (48 hours) RS4;11
Description: as §1

## Cc1ncsc1-c1ccc([C@H](C)NC(=O)[C@@H]2C[C@@H](O)CN2C(=O)[C@@H](NC(=O)CCCCCCCC(=O)N[C@H]2CCCN(CC3(C)CCC(c4ccc(Cl)cc4)=C(CN4CCN(c5ccc(C(=O)NS(=O)(=O)c6ccc(N[C@H](CCN7CCOCC7)CSc7ccccc7)c(S(=O)(=O)C(F)(F)F)c6)cc5)CC4)C3)C2)C(C)(C)C)cc1 (stereo partly drawn) [degrader #48, N1-((3S)-1-((4′-chloro-4-methyl-6-((4-(4-(((4-(((R)-4-morpholino-1-(phenylthio)butan-2-yl)amino)-3-((trifluoromethyl)sulfonyl)phenyl)sulfonyl)carbamoyl)phenyl)piperazin-1-yl)methyl)-2,3,4,5-tetrahydro-[1,1′-biphenyl]-4-yl)methyl)piperidin-3-yl)-N9-((S)-1-((2S,4R)-4-hydroxy-2-(((S)-1-(4-(4-methylthiazol-5-yl)phenyl)ethyl)carbamoyl)pyrrolidin-1-yl)-3,3-dimethyl-1-oxobutan-2-yl)nonanediamide]
MOLT-4 cells
  IC50: 50 to 150 nM
RS4;11 cells
  IC50: < 50 nM

## Cc1ncsc1-c1ccc([C@H](C)NC(=O)[C@@H]2C[C@@H](O)CN2C(=O)[C@@H](NC(=O)CCCCCCCCCCC(=O)N2CCC(c3ccc(Cl)cc3)=C(CN3CCN(c4ccc(C(=O)NS(=O)(=O)c5ccc(N[C@H](CCN6CCOCC6)CSc6ccccc6)c(S(=O)(=O)C(F)(F)F)c5)cc4)CC3)C2)C(C)(C)C)cc1 [compound 85, (2S,4R)-1-((S)-2-(12-(4-(4-chlorophenyl)-5-((4-(4-(((4-(((R)-4-morpholino-1-(phenylthio)butan-2-yl)amino)-3-((trifluoromethyl)sulfonyl)phenyl)sulfonyl)carbamoyl)phenyl)piperazin-1-yl)methyl)-3,6-dihydropyridin-1(2H)-yl)-12-oxododecanamido)-3,3-dimethylbutanoyl)-4-hydroxy-N—((S)-1-(4-(4-methylthiazol-5-yl)phenyl)ethyl)pyrrolidine-2-carboxamide]
MOLT-4 cells
  IC50: 50 to 150 nM
RS4;11 cells
  IC50: 50 to 150 nM

## Cc1ncsc1-c1ccc([C@H](C)NC(=O)[C@@H]2C[C@@H](O)CN2C(=O)[C@@H](NC(=O)CCCCCC(=O)N[C@H]2CCCN(CC3(C)CCC(c4ccc(Cl)cc4)=C(CN4CCN(c5ccc(C(=O)NS(=O)(=O)c6ccc(N[C@H](CCN7CCOCC7)CSc7ccccc7)c(S(=O)(=O)C(F)(F)F)c6)cc5)CC4)C3)C2)C(C)(C)C)cc1 (stereo partly drawn) [degrader #46, N1-((3S)-1-((4′-chloro-4-methyl-6-((4-(4-(((4-(((R)-4-morpholino-1-(phenylthio)butan-2-yl)amino)-3-((trifluoromethyl)sulfonyl)phenyl)sulfonyl)carbamoyl)phenyl)piperazin-1-yl)methyl)-2,3,4,5-tetrahydro-[1,1′-biphenyl]-4-yl)methyl)piperidin-3-yl)-N7-((S)-1-((2S,4R)-4-hydroxy-2-(((S)-1-(4-(4-methylthiazol-5-yl)phenyl)ethyl)carbamoyl)pyrrolidin-1-yl)-3,3-dimethyl-1-oxobutan-2-yl)heptanediamide]
MOLT-4 cells
  IC50: 150 to 500 nM
RS4;11 cells
  IC50: 50 to 150 nM

## CC1(CNC(=O)COCCOCCNc2cccc3c2C(=O)N(C2CCC(=O)NC2=O)C3=O)CCC(c2ccc(Cl)cc2)=C(CN2CCN(c3ccc(C(=O)NS(=O)(=O)c4ccc(N[C@H](CCN5CCOCC5)CSc5ccccc5)c(S(=O)(=O)C(F)(F)F)c4)cc3)CC2)C1 (stereo partly drawn) [compound 77, 4-(4-((4′-chloro-4-((2-(2-(2-((2-(2,6-dioxopiperidin-3-yl)-1,3-dioxoisoindolin-4-yl)amino)ethoxy)ethoxy)acetamido)methyl)-4-methyl-3,4,5,6-tetrahydro-[1,1′-biphenyl]-2-yl)methyl)piperazin-1-yl)-N-((4-(((R)-4-morpholino-1-(phenylthio)butan-2-yl)amino)-3-((trifluoromethyl)sulfonyl)phenyl)sulfonyl)benzamide]
MOLT-4 cells
  IC50: < 50 nM
RS4;11 cells
  IC50: < 50 nM

## Cc1ncsc1-c1ccc([C@H](C)NC(=O)[C@@H]2C[C@@H](O)CN2C(=O)[C@@H](NC(=O)CCCC(=O)N2CCN(C(=O)C3(C)CCC(c4ccc(Cl)cc4)=C(CN4CCN(c5ccc(C(=O)NS(=O)(=O)c6ccc(N[C@H](CCN7CCOCC7)CSc7ccccc7)c(S(=O)(=O)C(F)(F)F)c6)cc5)CC4)C3)CC2)C(C)(C)C)cc1 (stereo partly drawn) [compound 63, (2S,4R)-1-((2S)-2-(5-(4-(4′-chloro-4-methyl-6-((4-(4-(((4-(((R)-4-morpholino-1-(phenylthio)butan-2-yl)amino)-3-((trifluoromethyl)sulfonyl)phenyl)sulfonyl)carbamoyl)phenyl)piperazin-1-yl)methyl)-2,3,4,5-tetrahydro-[1,1′-biphenyl]-4-carbonyl)piperazin-1-yl)-5-oxopentanamido)-3,3-dimethylbutanoyl)-4-hydroxy-N—((S)-1-(4-(4-methylthiazol-5-yl)phenyl)ethyl)pyrrolidine-2-carboxamide]
MOLT-4 cells
  IC50: > 500 nM
RS4;11 cells
  IC50: > 500 nM

## Cc1ncsc1-c1ccc([C@H](C)NC(=O)[C@@H]2C[C@@H](O)CN2C(=O)[C@@H](NC(=O)CCCCCC(=O)N2CCN(CC3(C)CCC(c4ccc(Cl)cc4)=C(CN4CCN(c5ccc(C(=O)NS(=O)(=O)c6ccc(N[C@H](CCN7CCOCC7)CSc7ccccc7)c(S(=O)(=O)C(F)(F)F)c6)cc5)CC4)C3)CC2)C(C)(C)C)cc1 (stereo partly drawn) [degrader #16, (2S,4R)-1-((2S)-2-(7-(4-((4′-chloro-4-methyl-6-((4-(4-(((4-(((R)-4-morpholino-1-(phenylthio)butan-2-yl)amino)-3-((trifluoromethyl)sulfonyl)phenyl)sulfonyl)carbamoyl)phenyl)piperazin-1-yl)methyl)-2,3,4,5-tetrahydro-[1,1′-biphenyl]-4-yl)methyl)piperazin-1-yl)-7-oxoheptanamido)-3,3-dimethylbutanoyl)-4-hydroxy-N—((S)-1-(4-(4-methylthiazol-5-yl)phenyl)ethyl)pyrrolidine-2-carboxamide]
MOLT-4 cells
  IC50: < 50 nM
RS4;11 cells
  IC50: < 50 nM

## Cc1ncsc1-c1ccc([C@H](C)NC(=O)[C@@H]2C[C@@H](O)CN2C(=O)[C@@H](NC(=O)CCCCCCCCCC(=O)N2CCN(CC3(C)CCC(c4ccc(Cl)cc4)=C(CN4CCN(c5ccc(C(=O)NS(=O)(=O)c6ccc(N[C@H](CCN7CCOCC7)CSc7ccccc7)c(S(=O)(=O)C(F)(F)F)c6)cc5)CC4)C3)CC2)C(C)(C)C)cc1 (stereo partly drawn) [degrader #20, (2S,4R)-1-((2S)-2-(11-(4-((4′-chloro-4-methyl-6-((4-(4-(((4-(((R)-4-morpholino-1-(phenylthio)butan-2-yl)amino)-3-((trifluoromethyl)sulfonyl)phenyl)sulfonyl)carbamoyl)phenyl)piperazin-1-yl)methyl)-2,3,4,5-tetrahydro-[1,1′-biphenyl]-4-yl)methyl)piperazin-1-yl)-11-oxoundecanamido)-3,3-dimethylbutanoyl)-4-hydroxy-N—((S)-1-(4-(4-methylthiazol-5-yl)phenyl)ethyl)pyrrolidine-2-carboxamide]
MOLT-4 cells
  IC50: 150 to 500 nM
RS4;11 cells
  IC50: 150 to 500 nM

## Cc1ncsc1-c1ccc([C@H](C)NC(=O)[C@@H]2C[C@@H](O)CN2C(=O)[C@@H](NC(=O)CCCCCCCCC(=O)N2CCN(CC3(C)CCC(c4ccc(Cl)cc4)=C(CN4CCN(c5ccc(C(=O)NS(=O)(=O)c6ccc(N[C@H](CCN7CCOCC7)CSc7ccccc7)c(S(=O)(=O)C(F)(F)F)c6)cc5)CC4)C3)CC2)C(C)(C)C)cc1 (stereo partly drawn) [degrader #19, (2S,4R)-1-((2S)-2-(10-(4-((4′-chloro-4-methyl-6-((4-(4-(((4-(((R)-4-morpholino-1-(phenylthio)butan-2-yl)amino)-3-((trifluoromethyl)sulfonyl)phenyl)sulfonyl)carbamoyl)phenyl)piperazin-1-yl)methyl)-2,3,4,5-tetrahydro-[1,1′-biphenyl]-4-yl)methyl)piperazin-1-yl)-10-oxodecanamido)-3,3-dimethylbutanoyl)-4-hydroxy-N—((S)-1-(4-(4-methylthiazol-5-yl)phenyl)ethyl)pyrrolidine-2-carboxamide]
MOLT-4 cells
  IC50: 50 to 150 nM
RS4;11 cells
  IC50: 50 to 150 nM

## Cc1ncsc1-c1ccc([C@H](C)NC(=O)[C@@H]2C[C@@H](O)CN2C(=O)[C@@H](NC(=O)COCCOCCOCCOC(=O)N2CCC(c3ccc(Cl)cc3)=C(CN3CCN(c4ccc(C(=O)NS(=O)(=O)c5ccc(N[C@H](CCN6CCOCC6)CSc6ccccc6)c(S(=O)(=O)C(F)(F)F)c5)cc4)CC3)C2)C(C)(C)C)cc1 [compound 86, (S)-13-((2S,4R)-4-hydroxy-2-(((S)-1-(4-(4-methylthiazol-5-yl)phenyl)ethyl)carbamoyl)pyrrolidine-1-carbonyl)-14,14-dimethyl-11-oxo-3,6,9-trioxa-12-azapentadecyl 4-(4-chlorophenyl)-5-((4-(4-(((4-(((R)-4-morpholino-1-(phenylthio)butan-2-yl)amino)-3-((trifluoromethyl)sulfonyl)phenyl)sulfonyl)carbamoyl)phenyl)piperazin-1-yl)methyl)-3,6-dihydropyridine-1(2H)-carboxylate]
MOLT-4 cells
  IC50: > 500 nM
RS4;11 cells
  IC50: > 500 nM

## CC1(CNC(=O)CCCCCCCNc2cccc3c2C(=O)N(C2CCC(=O)NC2=O)C3=O)CCC(c2ccc(Cl)cc2)=C(CN2CCN(c3ccc(C(=O)NS(=O)(=O)c4ccc(N[C@H](CCN5CCOCC5)CSc5ccccc5)c(S(=O)(=O)C(F)(F)F)c4)cc3)CC2)C1 (stereo partly drawn) [compound 73, 4-(4-((4′-chloro-4-((8-((2-(2,6-dioxopiperidin-3-yl)-1,3-dioxoisoindolin-4-yl)amino)octanamido)methyl)-4-methyl-3,4,5,6-tetrahydro-[1,1′-biphenyl]-2-yl)methyl)piperazin-1-yl)-N-((4-(((R)-4-morpholino-1-(phenylthio)butan-2-yl)amino)-3-((trifluoromethyl)sulfonyl)phenyl)sulfonyl)benzamide]
MOLT-4 cells
  IC50: < 50 nM
RS4;11 cells
  IC50: < 50 nM
